In patent US11207325B2, “Triazolopyrimidine compounds and uses thereof” (Novartis AG, priority 2014, dated 2021):

How the values were obtained:
[1] = system: B cell lymphoma cell KARPAS422; experiment: Analysis of cell proliferation; assay type: cell-based; settings: Homo sapiens, KARPAS-422, 336 h; B cell lymphoma cell KARPAS422 after 14 days of treatment; read-out: antiproliferative activities (IC50 values)
Method: Analysis of Cell Proliferation
B cell lymphoma cell KARPAS422 was cultured using standard cell culture conditions in RPMI-1640 (Invitrogen, cat #11875) supplemented with 15% FBS (Invitrogen, cat #10099-141) in humidified incubator at 37° C., 5% CO2. To assess the effect of PRC2 inhibition on cell proliferation, exponentially growing cells were seeded at a density of 1×10^5 cells/mL in 12-well plate (Corning, cat #CLS3513). After cell seeding, a compound of the present disclosure was added to the cell media (in concentrations ranging from 0 to 100 μM, 3× dilution series). Viable cell numbers were determined every 3-4 days for up to 14 days using Vi-CELL (Beckman Coulter). On days of cell counting, fresh growth media and compound were replenished and cells split back to a density of 1×10^5 cells/mL. Total cell number is expressed as split-adjusted viable cells per mL. The dose response curves and IC50 values were generated using Prism.

[2] = system: H3K27 methylation in G401 cell; experiment: ELISA (H3K27 methylation) assay; assay type: cell-based; settings: Homo sapiens, G-401; ELISA Qualified assay (H3K27 methylation); read-out: (c) IC50 (μM), ELISA Qualified
From the text: ELISA (H3K27 Methylation) Assay

Row | IC50 [1] | IC50 [2] | Structure (SMILES)
1 | 0.8 nM | 0.0029 µM | COc1cc(C)c(-c2cnc(NCc3c(F)ccc4c3CCO4)n3cnnc23)cn1 [Example 5, N-((5-fluoro-2,3-dihydrobenzofuran-4-yl)methyl)-8-(6-methoxy-4-methylpyridin-3-yl)-[1,2,4]triazolo[4,3-c]pyrimidin-5-amine]
2 | 0.6 nM | 0.0029 µM | Cc1nc(C2CC2)ncc1-c1cnc(NCc2c(F)ccc3c2CCO3)n2cnnc12 [Example 8, 8-(2-cyclopropyl-4-methylpyrimidin-5-yl)-N-((5-fluoro-2,3-dihydrobenzofuran-4-yl)methyl)-[1,2,4]triazolo[4,3-c]pyrimidin-5-amine]
3 | 0.3 nM | 0.0021 µM | Cc1nn(C(C)C)cc1-c1cnc(NCc2c(F)ccc3c2CCO3)n2cnnc12 [Example 4, N-((5-Fluoro-2,3-dihydrobenzofuran-4-yl)methyl)-8-(1-isopropyl-3-methyl-1H-pyrazol-4-yl)-[1,2,4]triazolo[4,3-c]pyrimidin-5-amine]
4 | 1 nM | 0.0036 µM | Cc1ncccc1-c1cnc(NCc2c(F)ccc3occc23)n2cnnc12 [Example 207, N-((5-fluorobenzofuran-4-yl)methyl)-8-(2-methylpyridin-3-yl)-[1,2,4]triazolo[4,3-c]pyrimidin-5-amine]
5 | 3 nM | – | Cc1ncccc1-c1cnc(NCc2c(F)ccc3c2CCO3)n2cnnc12 [Example 2, N-((5-fluoro-2,3-dihydrobenzofuran-4-yl)methyl)-8-(2-methylpyridin-3-yl)-[1,2,4]triazolo[4,3-c]pyrimidin-5-amine]
6 | 17.4 nM | 0.001 µM | [O-][n+]1cccc(-c2cnc(NCc3c(F)ccc4c3CCO4)n3cnnc23)c1 [Example 10, 3-(5-(((5-fluoro-2,3-dihydrobenzofuran-4-yl)methyl)amino)-[1,2,4]triazolo[4,3-c]pyrimidin-8-yl)pyridine 1-oxide]
7 | 0.6 nM | 0.0035 µM | Cc1nc(OC(C)C)ncc1-c1cnc(NCc2c(F)ccc3c2CCO3)n2cnnc12 [Example 9, N-((5-fluoro-2,3-dihydrobenzofuran-4-yl)methyl)-8-(2-isopropoxy-4-methylpyrimidin-5-yl)-[1,2,4]triazolo[4,3-c]pyrimidin-5-amine]
8 | 0.2 nM | 0.0038 µM | Cc1nc(C2CC2)ccc1-c1cnc(NCc2c(F)ccc3c2CCO3)n2cnnc12 [Example 6, 8-(6-Cyclopropyl-2-methylpyridin-3-yl)-N-((5-fluoro-2,3-dihydrobenzofuran-4-yl)methyl)-[1,2,4]triazolo[4,3-c]pyrimidin-5-amine]
9 | 0.7 nM | 0.0034 µM | Cc1ncc(-c2cnc(NCc3c(F)ccc4c3CCO4)n3cnnc23)c(C)n1 [Example 3, 8-(2,4-Dimethylpyrimidin-5-yl)-N-((5-fluoro-2,3-dihydrobenzofuran-4-yl)methyl)-[1,2,4]triazolo[4,3-c]pyrimidin-5-amine]
10 | 3 nM | 0.0052 µM | OCc1ncccc1-c1cnc(NCc2c(F)ccc3c2CCO3)n2cnnc12 [Example 7, (3-(5-(((5-fluoro-2,3-dihydrobenzofuran-4-yl)methyl)amino)-[1,2,4]triazolo[4,3-c]pyrimidin-8-yl)pyridin-2-yl)methanol]
11 | 0.4 nM | 0.0009 µM | Cc1cc(-c2cnc(NCc3c(F)ccc4c3CCO4)n3cnnc23)n(C)n1 [Example 1, 8-(1,3-dimethyl-1H-pyrazol-5-yl)-N-((5-fluoro-2,3-dihydrobenzofuran-4-yl)methyl)-[1,2,4]triazolo[4,3-c]pyrimidin-5-amine]
12 | – | 0.321 µM | CN(C)C(=O)CCc1ccc(-c2cnc(NCc3cccc4c3CCO4)n3cnnc23)cn1 [Example 135, 3-(5-(5-(((2,3-dihydrobenzofuran-4-yl)methyl)amino)-[1,2,4]triazolo[4,3-c]pyrimidin-8-yl)pyridin-2-yl)-N,N-dimethylpropanamide]
13 | – | 0.0097 µM | Fc1ccc2c(c1CNc1ncc(-c3cccnc3)c3nncn13)CCO2 [Example 44, N-((5-fluoro-2,3-dihydrobenzofuran-4-yl)methyl)-8-(pyridin-3-yl)-[1,2,4]triazolo[4,3-c]pyrimidin-5-amine]
14 | – | 0.521 µM | Cc1nn(CCO)c(C)c1-c1cnc(NCc2cccc3c2CCO3)n2cnnc12 [Example 67, 2-(4-(5-(((2,3-dihydrobenzofuran-4-yl)methyl)amino)-[1,2,4]triazolo[4,3-c]pyrimidin-8-yl)-3,5-dimethyl-1H-pyrazol-1-yl)ethanol]
15 | – | 0.12 µM | Clc1ccncc1-c1cnc(NCc2cccc3c2CCO3)n2cnnc12 [Example 50, 8-(4-chloropyridin-3-yl)-N-((2,3-dihydrobenzofuran-4-yl)methyl)-[1,2,4]triazolo[4,3-c]pyrimidin-5-amine]
16 | – | 0.0351 µM | COc1ncccc1-c1cnc(NCc2c(F)ccc3c2CCO3)n2cnnc12 [Example 141, N-((5-fluoro-2,3-dihydrobenzofuran-4-yl)methyl)-8-(2-methoxypyridin-3-yl)-[1,2,4]triazolo[4,3-c]pyrimidin-5-amine]
17 | – | 0.214 µM | O=S(=O)(c1ccc(-c2cnc(NCc3cccc4c3CCO4)n3cnnc23)cc1)C1CCNCC1 [Example 29, N-((2,3-dihydrobenzofuran-4-yl)methyl)-8-(4-(piperidin-4-ylsulfonyl)phenyl)-[1,2,4]triazolo[4,3-c]pyrimidin-5-amine]
18 | – | 0.0124 µM | Cc1c(-c2cnc(NCc3c(F)ccc4c3CCO4)n3cnnc23)ccnc1F [Example 180, N-((5-fluoro-2,3-dihydrobenzofuran-4-yl)methyl)-8-(2-fluoro-3-methylpyridin-4-yl)-[1,2,4]triazolo[4,3-c]pyrimidin-5-amine]
19 | – | 0.0334 µM | CN(C)CCc1ccc(-c2cnc(NCc3cccc4c3CCO4)n3cnnc23)cc1 [Example 35, N-((2,3-dihydrobenzofuran-4-yl)methyl)-8-(4-(2-(dimethylamino)ethyl)phenyl)-[1,2,4]triazolo[4,3-c]pyrimidin-5-amine]
20 | – | 0.0334 µM | Cc1ccc(-c2cnc(NCc3c(F)ccc4c3CCO4)n3cnnc23)cn1 [Example 57, N-((5-fluoro-2,3-dihydrobenzofuran-4-yl)methyl)-8-(6-methylpyridin-3-yl)-[1,2,4]triazolo[4,3-c]pyrimidin-5-amine]
21 | – | 0.0024 µM | Cc1nn(C)cc1-c1cnc(NCc2c(F)ccc3c2CCO3)n2cnnc12 [Example 195, 8-(1,3-dimethyl-1H-pyrazol-4-yl)-N-((5-fluoro-2,3-dihydrobenzofuran-4-yl)methyl)-[1,2,4]triazolo[4,3-c]pyrimidin-5-amine]
